Results on ten compounds are retold here after paper PMC8150835, “An Smp43-Derived Short-Chain α-Helical Peptide Displays a Unique Sequence and Possesses Antimicrobial Activity against Both Gram-Positive and Gram-Negative Bacteria” (Toxins, 2021).

“Also recorded” adds a separate entry of the source. Where a SMILES comes first, the peptide text is derived from it.

In data set [1] the test system is Staphylococcus aureus ATCC29213. Description: MIC determination (broth microdilution). The settings on record: MHB, 5 × 10^5 CFU/mL, peptide 0.625 to 40 μg/mL, 37 °C, 18 h, OD 630 nm. In kind it is cell-based. How it is done:
(§1) The antimicrobial activities of the peptides were tested against S. aureus ATCC29213, E. faecalis ATCC29212, E. coli ATCC25922, K. pneumoniae ATCC700603, P. aeruginosa ATCC27853 and A. baumannii ATCC19606. All these strains were purchased from the China Center of Type Culture Collection (CCTCC).
(§2) The antimicrobial activities of the peptides were determined as previously described. Briefly, the bacteria were incubated at 37 °C and 150 rpm until the log phase of growth. Next, the bacteria were diluted with Mueller-Hinton broth (MHB, Oxoid, UK) and prepared in a clear round-bottom polypropylene 96-well microtiter plate to achieve a final concentration of 5 × 10^5 colony-forming unit (CFU)/mL. Twofold serial dilutions of the peptides were added into each well with the concentrations ranging from 0.625 to 40 μg/mL. The mixed peptides and cells were cultured at 37 °C and 150 rpm for 18 h, and the optical density (OD) was measured at 630 nm. The minimum inhibitory concentration was defined as the lowest peptide concentration with no detectable bacterial growth.
On the technique in general: Broth dilution looks for growth in wells or tubes with falling amounts of substance.

Data set [2] deals with Pseudomonas aeruginosa ATCC27853. Description: MIC determination (broth microdilution). Type of data set: cell-based. Particulars: MHB, 5 × 10^5 CFU/mL, peptide 0.625 to 40 μg/mL, 37 °C, 18 h, OD 630 nm. Here is the method:
as §1, §2

Data set [3] concerns Acinetobacter baumannii ATCC19606. Description: MIC determination (broth microdilution). In kind it is cell-based. Particulars: MHB, 5 × 10^5 CFU/mL, peptide 0.625 to 40 μg/mL, 37 °C, 18 h, OD 630 nm. Here is the method: as §1, §2
Data set [4] has as its system Enterococcus faecalis ATCC29212. Description: MIC determination (broth microdilution). Type of data set: cell-based. Particulars: MHB, 5 × 10^5 CFU/mL, peptide 0.625 to 40 μg/mL, 37 °C, 18 h, OD 630 nm. How it is done:
as §1, §2

In data set [5] the test system is Escherichia coli ATCC25922. Description: MIC determination (broth microdilution). In kind it is cell-based. The settings on record: MHB, 5 × 10^5 CFU/mL, peptide 0.625 to 40 μg/mL, 37 °C, 18 h, OD 630 nm. How it is done: as §1, §2
Data set [6] concerns Klebsiella pneumoniae ATCC700603. Description: MIC determination (broth microdilution). In kind it is cell-based. Particulars: MHB, 5 × 10^5 CFU/mL, peptide 0.625 to 40 μg/mL, 37 °C, 18 h, OD 630 nm. Here is the method: as §1, §2
For another data set, the system named is human red blood cells. Description: Hemolytic activity determination. The settings on record: 2% (v/v) hRBCs, peptide 12.5-200 μg/mL, 37 °C, 1 h, absorbance 540 nm; 1% Triton X-100 = 100%; three independent experiments. Type of data set: cell-based. How it is done: The hemolytic activities of the peptides were determined against human red blood cells (hRBCs). Briefly, fresh hRBCs anticoagulated with sodium citrate were rinsed with 0.9% sodium chloride by centrifugation (1000× g, 5 min). Then, the cells were diluted to a final concentration of 2% (v/v) and prepared in a clear 96-well polypropylene microtiter plate. Next, the samples were mixed with a series of concentrations of the peptide (12.5, 25, 50, 100 and 200 μg/mL) and incubated at 37 °C for 1 h. After that, the samples were centrifuged (2000× g, 10 min), and the absorbances of the supernatants were measured at 540 nm to evaluate the release of hemoglobin. HRBCs treated with 1% Triton X-100 or 0.9% sodium chloride were taken as 100% and 0% hemolysis, respectively.

Another data set relates to tested pathogens. Particulars: reported for the parent peptide; cited from earlier work.

By MIC is commonly meant the lowest concentration that inhibits growth of the organism. A higher MIC goes with a less susceptible organism. In the case of `CC[C@H](C)[C@H](NC(=O)[C@H](CCCCN)NC(=O)CNC(=O)[C@H](C)NC(=O)[C@@H](NC(=O)[C@H](CCCCN)NC(=O)[C@H](CCCCN)NC(=O)[C@@H](NC(=O)[C@H](Cc1c[nH]c2ccccc12)NC(=O)[C@H](CC(=O)O)NC(=O)[C@@H](N)Cc1c[nH]c2ccccc12)[C@@H](C)CC)[C@@H](C)O)C(=O)N[C@@H](Cc1c[nH]c2ccccc12)C(=O)N[C@@H](CC(N)=O)C(=O)N[C@@H](CO)C(N)=O` [Smp43(3-16)] (H-WDWIKKTAGKIWNS-NH2), the MIC in data set [1], in data set [2], in data set [3], in data set [4], in data set [5] and in data set [6] was > 40 µg/mL in each case. For the same compound, the “HC10: the concentration of the peptide that causes 10% hemolysis of human red blood cells” value in the data set on human red blood cells was > 200 µg/mL.
Turning to `CC(C)C[C@H](NC(=O)[C@H](C)NC(=O)[C@H](CCC(N)=O)NC(=O)[C@H](CO)NC(=O)[C@H](CCCCN)NC(=O)[C@H](CC(C)C)NC(=O)[C@H](C)NC(=O)[C@H](CCCCN)NC(=O)[C@@H](N)C(C)C)C(=O)N[C@@H](CC(N)=O)C(=O)N[C@@H](C)C(=O)N[C@@H](C)C(=O)N[C@@H](CCCCN)C(=O)N[C@@H](CC(N)=O)C(N)=O` [Smp43(19-32)] (H-VKALKSQALNAAKN-NH2), the minimum inhibitory concentration (MIC) in data set [1], in data set [2], in data set [3], in data set [4], in data set [5] and in data set [6] was > 40 µg/mL throughout. Moreover, the “HC10: the concentration of the peptide that causes 10% hemolysis of human red blood cells” value in the data set on human red blood cells is > 200 µg/mL.
Consider `CC(C)C[C@H](NC(=O)[C@H](C)NC(=O)[C@H](CCC(N)=O)NC(=O)[C@H](CO)NC(=O)[C@@H](N)CCCCN)C(=O)N[C@@H](CC(N)=O)C(=O)N[C@@H](C)C(=O)N[C@@H](C)C(=O)N[C@@H](CCCCN)C(=O)N[C@@H](CC(N)=O)C(=O)N[C@@H](Cc1ccccc1)C(=O)N[C@H](C(=O)N[C@@H](C)C(=O)N[C@@H](CCC(=O)O)C(N)=O)C(C)C` [Smp43(23-36)] (H-KSQALNAAKNFVAE-NH2), for which the MIC in data set [1], in data set [2], in data set [3], in data set [4], in data set [5] and in data set [6] was > 40 µg/mL throughout. Further, the “HC10: the concentration of the peptide that causes 10% hemolysis of human red blood cells” value in the data set with human red blood cells is > 200 µg/mL.
With `CC[C@H](C)[C@H](NC(=O)[C@H](CCCCN)NC(=O)CNC(=O)[C@H](C)NC(=O)[C@@H](N)[C@@H](C)O)C(=O)N[C@@H](Cc1c[nH]c2ccccc12)C(=O)N[C@@H](CC(N)=O)C(=O)N[C@@H](CO)C(=O)N[C@@H](CCC(=O)O)C(=O)N1CCC[C@H]1C(=O)N[C@H](C(=O)N[C@@H](CCCCN)C(=O)N[C@@H](C)C(=O)N[C@@H](CC(C)C)C(N)=O)C(C)C` [Smp43(9-22)] (H-TAGKIWNSEPVKAL-NH2), the MIC in data set [1], in data set [2], in data set [3], in data set [4], in data set [5] and in data set [6] was > 40 µg/mL throughout. Besides, the “HC10: the concentration of the peptide that causes 10% hemolysis of human red blood cells” value with human red blood cells is > 200 µg/mL.
In the case of `CC[C@H](C)[C@H](NC(=O)[C@H](CCCCN)NC(=O)CNC(=O)[C@H](C)NC(=O)[C@@H](NC(=O)[C@H](CCCCN)NC(=O)[C@@H](N)CCCCN)[C@@H](C)O)C(=O)N[C@@H](Cc1c[nH]c2ccccc12)C(=O)N[C@@H](CC(N)=O)C(=O)N[C@@H](CO)C(=O)N[C@@H](CCC(=O)O)C(=O)N1CCC[C@H]1C(=O)N[C@H](C(=O)N[C@@H](CCCCN)C(N)=O)C(C)C` [Smp43(7-20)] (H-KKTAGKIWNSEPVK-NH2), the minimal inhibitory concentration (MIC) in data set [1], in data set [2], in data set [3], in data set [4], in data set [5] and in data set [6] was > 40 µg/mL in each case. For the same compound, the “HC10: the concentration of the peptide that causes 10% hemolysis of human red blood cells” value in the data set on human red blood cells was > 200 µg/mL.
In the case of “G-VWDWIKKTAGKIWNSEPVKALKSQALNAAKNFVAEKIGATPS [Smp43]”, in the data set on tested pathogens, the antimicrobial activity result was “poor antimicrobial activities; also recorded: poor antimicrobial activity”.
Turning to `CC[C@H](C)[C@H](NC(=O)[C@H](CCCCN)NC(=O)CNC(=O)[C@H](C)NC(=O)[C@@H](NC(=O)[C@H](CCCCN)NC(=O)[C@H](CCCCN)NC(=O)[C@@H](NC(=O)[C@@H](N)Cc1c[nH]c2ccccc12)[C@@H](C)CC)[C@@H](C)O)C(=O)N[C@@H](Cc1c[nH]c2ccccc12)C(=O)N[C@@H](CC(N)=O)C(=O)N[C@@H](CO)C(=O)N[C@@H](CCC(=O)O)C(=O)N1CCC[C@H]1C(N)=O` [Smp43(5-18)] (H-WIKKTAGKIWNSEP-NH2), the MIC in data set [1], in data set [2], in data set [3], in data set [4], in data set [5] and in data set [6] was > 40 µg/mL throughout. Moreover, the “HC10: the concentration of the peptide that causes 10% hemolysis of human red blood cells” value in the data set on human red blood cells is > 200 µg/mL.
As to `CC[C@H](C)[C@H](N)C(=O)N[C@@H](Cc1c[nH]c2ccccc12)C(=O)N[C@@H](CC(N)=O)C(=O)N[C@@H](CO)C(=O)N[C@@H](CCC(=O)O)C(=O)N1CCC[C@H]1C(=O)N[C@H](C(=O)N[C@@H](CCCCN)C(=O)N[C@@H](C)C(=O)N[C@@H](CC(C)C)C(=O)N[C@@H](CCCCN)C(=O)N[C@@H](CO)C(=O)N[C@@H](CCC(N)=O)C(=O)N[C@@H](C)C(N)=O)C(C)C` [Smp43(13-26)] (H-IWNSEPVKALKSQA-NH2), the MIC in data set [1], in data set [2], in data set [3], in data set [4], in data set [5] and in data set [6] was > 40 µg/mL in each case. The “HC10: the concentration of the peptide that causes 10% hemolysis of human red blood cells” value with human red blood cells was > 200 µg/mL.
Take `CC[C@H](C)[C@H](NC(=O)[C@H](CCCCN)NC(=O)[C@H](CCC(=O)O)NC(=O)[C@H](C)NC(=O)[C@@H](NC(=O)[C@H](Cc1ccccc1)NC(=O)[C@H](CC(N)=O)NC(=O)[C@H](CCCCN)NC(=O)[C@H](C)NC(=O)[C@H](C)N)C(C)C)C(=O)NCC(=O)N[C@@H](C)C(=O)N[C@H](C(=O)N1CCC[C@H]1C(N)=O)[C@@H](C)O` [Smp43(29-42)] (H-AAKNFVAEKIGATP-NH2): the MIC in data set [1], in data set [2], in data set [3], in data set [4], in data set [5] and in data set [6] was > 40 µg/mL in each case. For the same compound, the “HC10: the concentration of the peptide that causes 10% hemolysis of human red blood cells” value with human red blood cells was > 200 µg/mL.
As for `CC(C)C[C@H](NC(=O)[C@H](C)NC(=O)[C@H](CCC(N)=O)NC(=O)[C@H](CO)NC(=O)[C@H](CCCCN)NC(=O)[C@H](CC(C)C)NC(=O)[C@H](C)NC(=O)[C@H](CCCCN)NC(=O)[C@@H](NC(=O)[C@@H]1CCCN1C(=O)[C@@H](N)CCC(=O)O)C(C)C)C(=O)N[C@@H](CC(N)=O)C(=O)N[C@@H](C)C(=O)N[C@@H](C)C(N)=O` [Smp43(17-30)] (H-EPVKALKSQALNAA-NH2), the minimal inhibitory concentration (MIC) in data set [1], in data set [2], in data set [3], in data set [4], in data set [5] and in data set [6] was > 40 µg/mL each time. In addition, in the data set with human red blood cells, the “HC10: the concentration of the peptide that causes 10% hemolysis of human red blood cells” value was > 200 µg/mL.
